Data reported in patent US20130040935A1, “CYCLIC KETO-ENOLS FOR THERAPY” (BAYER INTELLECTUAL PROPERTY GMBH, priority 2010, published 2013).
Read-outs that look alike come from different tables or passages of the source.

Columns and labels:
[1] = molecular target: human ACC2 (acetyl-coenzyme A carboxylase 2) (Homo sapiens, UniProt O00763); assay: Human ACC2 enzyme assay, Assay B2 (ADP-Glo);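 also: human ACC2 activity read as ADP product, detected by luciferase glow luminescence after residual ATP removal, enzyme near 2 ng/µl in linear range, detection steps at 22 °C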
human ACC2 (acetyl-coenzyme A carboxylase 2), sequence (O00763 27-2458 limits assumed): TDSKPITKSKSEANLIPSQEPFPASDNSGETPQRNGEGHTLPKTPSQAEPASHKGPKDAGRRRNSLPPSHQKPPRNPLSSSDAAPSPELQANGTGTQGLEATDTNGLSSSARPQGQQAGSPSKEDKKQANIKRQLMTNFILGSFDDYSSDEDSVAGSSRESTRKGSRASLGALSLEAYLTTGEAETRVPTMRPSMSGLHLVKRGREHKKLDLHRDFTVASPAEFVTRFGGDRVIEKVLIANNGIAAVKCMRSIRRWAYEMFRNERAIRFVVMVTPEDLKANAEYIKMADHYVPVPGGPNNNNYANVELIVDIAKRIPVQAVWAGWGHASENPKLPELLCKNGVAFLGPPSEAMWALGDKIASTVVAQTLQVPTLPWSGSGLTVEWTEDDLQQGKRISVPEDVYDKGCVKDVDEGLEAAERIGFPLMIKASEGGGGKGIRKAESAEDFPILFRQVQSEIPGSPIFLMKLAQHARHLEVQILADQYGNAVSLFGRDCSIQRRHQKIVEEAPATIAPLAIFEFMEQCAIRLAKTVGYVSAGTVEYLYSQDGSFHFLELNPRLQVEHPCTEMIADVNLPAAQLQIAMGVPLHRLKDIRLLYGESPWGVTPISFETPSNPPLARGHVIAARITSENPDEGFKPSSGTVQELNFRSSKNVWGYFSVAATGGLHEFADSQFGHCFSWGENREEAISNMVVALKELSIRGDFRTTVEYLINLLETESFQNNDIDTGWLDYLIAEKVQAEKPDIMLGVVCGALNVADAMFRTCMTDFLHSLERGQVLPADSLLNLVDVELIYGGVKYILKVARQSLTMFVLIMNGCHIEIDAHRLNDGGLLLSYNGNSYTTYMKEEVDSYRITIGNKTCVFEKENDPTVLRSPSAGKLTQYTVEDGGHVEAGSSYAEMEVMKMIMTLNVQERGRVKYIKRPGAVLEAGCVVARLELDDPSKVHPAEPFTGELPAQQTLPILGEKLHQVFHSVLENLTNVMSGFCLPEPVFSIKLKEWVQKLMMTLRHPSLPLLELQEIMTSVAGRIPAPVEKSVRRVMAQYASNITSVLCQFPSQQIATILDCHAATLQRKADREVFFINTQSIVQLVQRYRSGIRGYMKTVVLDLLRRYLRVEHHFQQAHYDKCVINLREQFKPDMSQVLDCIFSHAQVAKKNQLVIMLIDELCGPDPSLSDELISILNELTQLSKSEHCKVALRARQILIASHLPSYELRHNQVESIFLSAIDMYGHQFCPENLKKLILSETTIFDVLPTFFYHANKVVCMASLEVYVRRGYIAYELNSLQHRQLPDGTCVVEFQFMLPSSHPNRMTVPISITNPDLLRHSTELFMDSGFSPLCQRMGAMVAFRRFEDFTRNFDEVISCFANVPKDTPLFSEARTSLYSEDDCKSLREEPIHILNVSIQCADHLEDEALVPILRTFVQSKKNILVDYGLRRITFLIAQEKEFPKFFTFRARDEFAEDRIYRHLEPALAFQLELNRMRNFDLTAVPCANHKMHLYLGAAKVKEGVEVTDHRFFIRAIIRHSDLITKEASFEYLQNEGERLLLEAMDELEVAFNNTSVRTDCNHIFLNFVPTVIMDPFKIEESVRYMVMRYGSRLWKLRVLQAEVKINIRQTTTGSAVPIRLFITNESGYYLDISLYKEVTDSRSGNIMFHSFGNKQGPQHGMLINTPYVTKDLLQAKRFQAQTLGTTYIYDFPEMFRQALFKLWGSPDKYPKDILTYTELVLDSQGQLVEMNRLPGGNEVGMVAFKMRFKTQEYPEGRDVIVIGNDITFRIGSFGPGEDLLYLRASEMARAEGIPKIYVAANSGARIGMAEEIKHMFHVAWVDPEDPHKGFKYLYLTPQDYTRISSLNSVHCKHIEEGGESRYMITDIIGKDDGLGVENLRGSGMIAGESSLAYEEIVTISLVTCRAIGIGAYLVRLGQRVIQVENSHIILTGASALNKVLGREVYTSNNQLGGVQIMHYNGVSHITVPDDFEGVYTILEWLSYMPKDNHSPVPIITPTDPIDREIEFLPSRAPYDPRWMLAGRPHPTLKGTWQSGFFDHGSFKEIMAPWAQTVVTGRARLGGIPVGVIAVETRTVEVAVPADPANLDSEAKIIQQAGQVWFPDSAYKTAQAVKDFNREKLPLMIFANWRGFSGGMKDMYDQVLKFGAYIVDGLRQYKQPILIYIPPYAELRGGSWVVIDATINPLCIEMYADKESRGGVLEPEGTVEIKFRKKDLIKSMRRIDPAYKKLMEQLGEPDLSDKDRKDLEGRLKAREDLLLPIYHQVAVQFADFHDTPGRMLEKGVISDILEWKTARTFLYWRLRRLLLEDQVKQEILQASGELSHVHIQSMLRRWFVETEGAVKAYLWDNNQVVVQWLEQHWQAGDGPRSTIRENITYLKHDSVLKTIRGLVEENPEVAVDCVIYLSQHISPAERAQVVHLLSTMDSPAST

MCF7 = assay: Cell proliferation assay (CellTiter-Glo, 96 h), MCF7; type: cell-based; settings: Homo sapiens
Procedure, shortened: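 Cells seeded 2000-5000/well, treated next day and incubated 96 h at 37° C; viability by CellTiter-Glo luminescence. t=0 luminescence subtracted from 96 h values for treated and untreated wells; percent growth inhibition derived relative to controls.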

[2] = test system: malonyl-CoA in a tumour (human MCF-7 breast cancer cells); assay: Mode-of-action experiment: intratumour malonyl-CoA in MCF-7 tumours after oral administration; type: in vivo, female nude mice (NMRI-nude (nu/nu)); settings: Mus musculus, MCF7, po; after 7 h, 10 mg/kg, vs Vehicle
Protocol: Mode-of-Action Experiment
Prior to the determination of the activity in the MCF-7 model, some of the test substances were examined in a “mode of action” experiment. The principle of this experiment is that short-term application of a test substance capable of inhibiting ACC1 and/or ACC2 in a living organism after oral administration reduces malonyl-CoA in a tumour. To this end, in the experiment 2 million human MCF-7 breast cancer cells were injected subcutaneously into female nude mice (NMRI-nude (nu/nu) mice, Taconic M&B A/S, 1 day beforehand administration of a pellet for the release of oestrogen over a period of at least 60 days). Once the tumour extended to an area of about 60-70 mm^2, the test substance was administered orally over a period of 1-3 days, and at defined points in time the intratumour content of malonyl-CoA was then determined and compared to the vehicle control. The method is described in Anal Chem 2008 Aug. 1; 80(15):5736-42. Epub 2008 Jul. 9.).

[3] = molecular target: T1, human ACC1 (acetyl-coenzyme A carboxylase alpha transcript variant 1) (Homo sapiens, UniProt Q13085); assay: Human ACC1 enzyme assay, Assay B1 (ADP-Glo); type: biochemical
T1 construct: FLAG (C); made in house; host or cells: baculovirus-infected insect cells (Hi5)

[4] = molecular target: acetyl-CoA carboxylase 2 (ACC2) (Homo sapiens, UniProt O00763); assay: Human ACC2 enzyme assay, Assay A2 (HTRF ADP immunoassay);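 also: ADP generated by ACC2 quantified via competitive time-resolved FRET between europium cryptate anti-ADP antibody and d2-tagged ADP, enzyme kept in linear range near 0.6 ng/µl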
acetyl-CoA carboxylase 2 (ACC2), sequence (O00763 39-2458 limits assumed): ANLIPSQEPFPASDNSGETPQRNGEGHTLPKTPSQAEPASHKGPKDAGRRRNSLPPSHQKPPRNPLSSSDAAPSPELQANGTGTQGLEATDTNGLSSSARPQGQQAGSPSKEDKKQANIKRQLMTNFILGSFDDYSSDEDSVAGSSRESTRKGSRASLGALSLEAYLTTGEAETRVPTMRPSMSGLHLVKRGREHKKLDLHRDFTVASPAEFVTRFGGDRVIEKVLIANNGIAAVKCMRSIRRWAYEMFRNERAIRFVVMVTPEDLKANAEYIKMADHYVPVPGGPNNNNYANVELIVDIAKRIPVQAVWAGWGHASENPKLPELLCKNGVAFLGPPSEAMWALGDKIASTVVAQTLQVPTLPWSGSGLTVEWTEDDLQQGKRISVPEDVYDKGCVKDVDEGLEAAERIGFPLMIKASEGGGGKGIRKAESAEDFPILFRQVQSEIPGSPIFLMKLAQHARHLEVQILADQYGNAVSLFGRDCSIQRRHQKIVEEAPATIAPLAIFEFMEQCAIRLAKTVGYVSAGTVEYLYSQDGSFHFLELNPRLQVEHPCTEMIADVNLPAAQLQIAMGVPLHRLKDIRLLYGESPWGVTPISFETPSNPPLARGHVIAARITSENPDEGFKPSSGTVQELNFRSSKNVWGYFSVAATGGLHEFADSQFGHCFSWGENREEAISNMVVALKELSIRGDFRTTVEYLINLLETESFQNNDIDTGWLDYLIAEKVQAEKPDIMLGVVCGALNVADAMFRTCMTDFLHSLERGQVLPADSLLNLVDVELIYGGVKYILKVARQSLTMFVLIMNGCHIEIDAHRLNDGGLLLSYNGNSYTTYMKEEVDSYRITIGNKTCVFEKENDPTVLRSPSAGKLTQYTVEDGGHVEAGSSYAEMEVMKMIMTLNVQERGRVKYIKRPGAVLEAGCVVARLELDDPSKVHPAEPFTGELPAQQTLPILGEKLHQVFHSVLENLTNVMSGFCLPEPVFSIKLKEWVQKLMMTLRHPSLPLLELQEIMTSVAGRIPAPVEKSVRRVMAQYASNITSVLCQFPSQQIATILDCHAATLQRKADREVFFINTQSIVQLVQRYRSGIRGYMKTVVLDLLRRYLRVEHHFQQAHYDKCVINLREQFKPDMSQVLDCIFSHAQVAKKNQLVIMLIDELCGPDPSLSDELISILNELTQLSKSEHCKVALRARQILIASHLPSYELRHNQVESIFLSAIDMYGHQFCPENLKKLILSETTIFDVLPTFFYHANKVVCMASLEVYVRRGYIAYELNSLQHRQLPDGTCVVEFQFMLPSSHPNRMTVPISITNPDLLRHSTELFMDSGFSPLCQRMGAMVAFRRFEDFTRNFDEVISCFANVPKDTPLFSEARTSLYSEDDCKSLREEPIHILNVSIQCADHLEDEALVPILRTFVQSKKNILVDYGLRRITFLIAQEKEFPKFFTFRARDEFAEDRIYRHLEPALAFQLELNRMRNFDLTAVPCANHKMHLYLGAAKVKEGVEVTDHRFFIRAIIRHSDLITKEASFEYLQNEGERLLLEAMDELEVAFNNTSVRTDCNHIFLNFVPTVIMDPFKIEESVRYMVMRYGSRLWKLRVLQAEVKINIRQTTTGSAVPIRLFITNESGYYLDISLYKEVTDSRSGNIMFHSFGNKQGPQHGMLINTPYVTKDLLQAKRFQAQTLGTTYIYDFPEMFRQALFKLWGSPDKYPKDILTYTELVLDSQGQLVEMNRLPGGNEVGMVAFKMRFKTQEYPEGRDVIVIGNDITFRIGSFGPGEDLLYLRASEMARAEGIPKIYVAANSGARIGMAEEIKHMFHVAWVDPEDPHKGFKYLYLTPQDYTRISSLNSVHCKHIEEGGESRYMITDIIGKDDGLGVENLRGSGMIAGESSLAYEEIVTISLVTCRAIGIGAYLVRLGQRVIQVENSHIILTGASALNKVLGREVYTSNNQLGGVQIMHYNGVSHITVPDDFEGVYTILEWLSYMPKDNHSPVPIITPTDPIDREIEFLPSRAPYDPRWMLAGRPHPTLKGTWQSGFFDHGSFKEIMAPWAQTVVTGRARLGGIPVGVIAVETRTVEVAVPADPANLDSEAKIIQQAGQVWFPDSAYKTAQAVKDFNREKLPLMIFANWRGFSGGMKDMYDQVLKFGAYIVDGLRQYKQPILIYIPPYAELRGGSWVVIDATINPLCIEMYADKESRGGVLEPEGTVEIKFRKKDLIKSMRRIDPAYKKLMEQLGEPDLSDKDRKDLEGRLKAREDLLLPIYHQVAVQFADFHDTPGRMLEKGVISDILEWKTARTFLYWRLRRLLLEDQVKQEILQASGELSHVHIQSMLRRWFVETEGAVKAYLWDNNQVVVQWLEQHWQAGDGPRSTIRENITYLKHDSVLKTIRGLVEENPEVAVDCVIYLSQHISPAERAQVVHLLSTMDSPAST
Protocol: The inhibitory activity of the substances of this invention with regard to acetyl-CoA carboxylase 2 (ACC2) was measured using the ACC2 assay described in the paragraphs below. The basic principle of the assay is the measurement of adenosine diphosphate (ADP), which is formed as a by-product, by means of an HTRF®-based competitive immunoassay (HTRF=Homogeneous Time Resolved Fluorescence).
The amount of complex of d2-labelled ADP and europium cryptate-labelled anti-ADP antibody was then determined by measuring the resonance energy transfer of europium cryptate to d2.

recombinant human ACC1 = recombinant human ACC1 (Homo sapiens, UniProt Q13085); assay: Human ACC1 enzyme assay, Assay A1 (HTRF ADP immunoassay);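 also: ADP generated by the enzyme quantified via competitive time-resolved FRET, read as europium cryptate to d2 energy transfer after 1 h at 22 °C with labelled ADP tracer and anti-ADP antibody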
Protocol: The inhibitory activity of the substances of this invention with regard to acetyl-CoA carboxylase 1 (ACC1) was measured using the ACC1 assay described in the paragraphs below. The basic principle of the assay is the measurement of adenosine diphosphate (ADP), which is formed as a by-product, by means of an HTRF®-based competitive immunoassay (HTRF=Homogeneous Time Resolved Fluorescence).
Typical concentrations were in the range of 2.5 ng/μl.
The amount of complex between d2-labelled ADP and europium cryptate-labelled anti-ADP antibody was then determined by measuring the resonance energy transfer from the europium cryptate to d2.

[5] = MCF7, Table 7, 96-hour incubation
[6] = Assay B1, read-out: ACC 1 (=B1) IC50

| IC50 [3, 6] [nM] | IC50 ([3]; Assay B1, ADP-Glo, read-out: ACC 1 (=B1) IC50) [nM] | IC50 (MCF7; MCF7 cells) [nM] | Structure (SMILES) | IC50 [1] [nM] | IC50 (MCF7; [5]) [nM] | inhibition in vivo at 10 mg/kg [2] [%] | IC50 [3] [nM] | IC50 [4] [nM] | IC50 (recombinant human ACC1) [nM] |
| --- | --- | --- | --- | --- | --- | --- | --- | --- | --- |
| – | – | – | CO[C@H]1CC[C@]2(CC1)NC(=O)C(c1cc(-c3ccc(Cl)cc3)ccc1C)=C2O [1-2, (5s,8s)-3-(4′-chloro-4-methylbiphenyl-3-yl)-4-hydroxy-8-methoxy-1-azaspiro[4.5]dec-3-en-2-one] | 822 | 57 | 96 | – | – | – |
| 246 | – | – | Cc1ccc(-c2ccc(Cl)cc2)cc1C1=C(O)C2(CCCOC2)NC1=O (centres unmarked) [1-5, 3-(4′-chloro-4-methylbiphenyl-3-yl)-4-hydroxy-7-oxa-1-azaspiro[4.5]dec-3-en-2-one] | 11000 | 230 | 82 | – | – | – |
| – | – | – | COC1CCC2(CC1)NC(=O)C(c1cc(-c3ccc(Cl)cc3)c(C)cc1C)=C2O (centres unmarked) [1-7, 3-(4′-chloro-4,6-dimethylbiphenyl-3-yl)-4-hydroxy-8-methoxy-1-azaspiro[4.5]dec-3-en-2-one] | 328 | 57 | 89 | 1460 | – | – |
| – | – | – | COC1CCC2(CC1)NC(=O)C(c1cc(-c3ccc(Cl)cc3)ccc1Cl)=C2O (centres unmarked) [1-11, 3-(4,4′-dichlorobiphenyl-3-yl)-4-hydroxy-8-methoxy-1-azaspiro[4.5]dec-3-en-2-one] | 4470 | 124 | 87 | 157 | – | – |
| 230 | – | – | Cc1ccc(-c2ccc(Cl)cc2)cc1C1=C(O)C2(CCC(C)(C)CC2)NC1=O [1-20, 3-(4′-chloro-4-methylbiphenyl-3-yl)-4-hydroxy-8,8-dimethyl-1-azaspiro[4.5]dec-3-en-2-one] | 1130 | 40 | 87 | – | – | – |
| 230 | – | – | Cc1ccc(-c2ccc(Cl)cc2)cc1C1=C(O)C2(CCC(C(C)C)CC2)NC1=O (centres unmarked) [1-24, 3-(4′-chloro-4-methylbiphenyl-3-yl)-4-hydroxy-8-(propan-2-yl)-1-azaspiro[4.5]dec-3-en-2-one] | 517 | 27 | 91 | – | – | – |
| 481 | – | – | Cc1ccc(-c2ccc(Cl)cc2)c(C)c1C1=C(O)[C@]2(CC[C@H](OCC(F)(F)F)CC2)NC1=O [1-30, (5s,8s)-3-(4′-chloro-2,4-dimethylbiphenyl-3-yl)-4-hydroxy-8-(2,2,2-trifluoroethoxy)-1-azaspiro[4.5]dec-3-en-2-one] | 976 | 48 | 82 | – | – | – |
| – | – | – | Cc1ccc(-c2ccc(F)c(F)c2)cc1C1=C(O)C2(CCC3(CCCO3)CC2)NC1=O (centres unmarked) [1-35, 11-(3′,4′-difluoro-4-methylbiphenyl-3-yl)-12-hydroxy-1-oxa-9-azadispiro[4.2.4.2]tetradec-11-en-10-one] | 6910 | 94 | 31 | 388 | – | – |
| – | – | – | COCC1CCC2(CC1)NC(=O)C(c1c(C)ccc(-c3ccc(Cl)cc3)c1C)=C2O (centres unmarked) [1-53, 3-(4′-chloro-2,4-dimethylbiphenyl-3-yl)-4-hydroxy-8-(methoxymethyl)-1-azaspiro[4.5]dec-3-en-2-one] | 632 | 70 | 43 | 243 | – | – |
| – | – | – | COCC1CCC2(CC1)NC(=O)C(c1cc(-c3ccc(Cl)cc3)ccc1Cl)=C2O (centres unmarked) [1-54, 3-(4,4′-dichlorobiphenyl-3-yl)-4-hydroxy-8-(methoxymethyl)-1-azaspiro[4.5]dec-3-en-2-one] | 1350 | 88 | 61 | 157 | – | – |
| 163 | – | – | Cc1ccc(-c2ccc(Cl)cc2)cc1C1=C(O)[C@]2(CC[C@H](C)CC2)NC1=O [1-76, 3-(4′-chloro-4-methylbiphenyl-3-yl)-4-hydroxy-8-methyl-1-azaspiro[4.5]dec-3-en-2-one] | 432 | – | 96 | – | – | – |
| 142 | – | – | Cc1ccc(-c2ccc(Cl)cc2)cc1C1=C(O)[C@@]2(CCC[C@H](C(F)(F)F)C2)NC1=O [1-133, (5S,7S)-3 (4′-Chloro-4 methylbiphenyl-3-yl)-4-hydroxy-7-(trifluoromethyl)-1-azaspiro[4.5]dec-3-en-2-one] | 8100 | 75 | – | – | 2870 | 329 |
| 109 | – | – | O=C1N[C@]2(CC[C@@H](C(F)(F)F)CC2)C(O)=C1c1cc(-c2ccc(Cl)cc2)ccc1Cl [1-134, (5s,8s)-3-(4,4′-Dichlorobiphenyl-3-yl)-4-hydroxy-8 (trifluoromethyl)-1-azaspiro[4.5]dec-3-en-2-one] | 2850 | 114 | – | – | 1310 | 299 |
| – | – | – | CO[C@H]1CC[C@]2(CC1)NC(=O)C(c1cc(-c3ccc(Cl)cc3)c(F)cc1C)=C2O [1-135, (5s,8s)-3-(4′-Chloro 6 fluoro 4-methylbiphenyl-3-yl)-4-hydroxy-8-methoxy-1-azaspiro[4.5]dec-3-en-2-one] | 1750 | 171 | – | 94 | 657 | 220 |
| – | – | – | CO[C@H]1CC[C@]2(CC1)NC(=O)C(c1cc(-c3ccc(F)c(F)c3)ccc1C)=C2O [1-136, (5s,8s)-3-(3′,4′-Difluoro-4-methylbiphenyl-3-yl)-4-hydroxy-8-methoxy-1-azaspiro[4.5]dec-3-en-2-one] | 12500 | 156 | – | 233 | 6490 | 239 |
| – | – | – | O=C1N[C@]2(CCC[C@H](C(F)(F)F)C2)C(O)=C1c1cc(-c2ccc(Cl)cc2)ccc1Cl [1-137, (5S,7S)-3-(4,4′-Dichlorobiphenyl-3-yl)-4-hydroxy-7-(trifluoromethyl)-1-azaspiro[4.5]dec-3-en-2-one] | 7490 | 439 | – | 168 | 7750 | 307 |
| – | – | – | CC1(C)CCC2(CC1)NC(=O)C(c1cc(-c3ccc(Cl)cc3)ccc1Cl)=C2O [1-138, 3-(4,4′-Dichlorobiphenyl-3-yl)-4-hydroxy-8,8-dimethyl-1-azaspiro[4.5]dec-3-en-2-one] | 2190 | 54 | – | 172 | 633 | 262 |
| – | – | – | CC1CCC2(CC1)NC(=O)C(c1cc(-c3ccc(Cl)cc3)ccc1Cl)=C2O (centres unmarked) [1-139, 3-(4,4′-Dichlorobiphenyl-3-yl)-4-hydroxy-8-methyl-1-azaspiro[4.5]dec-3-en-2-one] | 4550 | 70 | – | 153 | 605 | 280 |
| – | – | – | CC(C)[C@H]1CC[C@]2(CC1)NC(=O)C(c1cc(-c3ccc(Cl)cc3)ccc1Cl)=C2O [1-141, (5s,8s)-3-(4,4′-Dichlorobiphenyl-3-yl)-4-hydroxy-8-isopropyl-1-azaspiro[4.5]dec-3-en-2-one] | 1380 | 79 | – | 161 | 625 | 247 |
| – | – | – | CO[C@H]1CC[C@]2(CC1)NC(=O)C(c1cc(-c3ccc(Cl)cc3F)ccc1C)=C2O [1-142, (5s,8s)-3-(4′-Chloro-2′-fluoro-4-methylbiphenyl-3-yl)-4-hydroxy-8-methoxy-1-azaspiro[4.5]dec-3-en-2-one] | 957 | 106 | – | 704 | 551 | 337 |
| – | – | – | CO[C@H]1CC[C@]2(CC1)NC(=O)C(c1cc(-c3ccc(Cl)cc3Cl)ccc1C)=C2O [1-143, (5s,8s)-3-(2′,4′-Dichloro-4-methylbiphenyl-3-yl)-4-hydroxy-8-methoxy-1-azaspiro[4.5]dec-3-en-2-one] | 2150 | 111 | – | 161 | 1020 | 282 |
| 115 | – | – | CCO[C@H]1CC[C@]2(CC1)NC(=O)C(c1cc(-c3ccc(Cl)cc3)ccc1C)=C2O [1-146, (5s,8s)-3-(4′-Chloro-4 methylbiphenyl-3-yl)-8-ethoxy-4-hydroxy-1-azaspiro[4.5]dec-3-en-2-one] | 679 | 47 | – | – | 455 | 197 |
| 150 | – | – | CCO[C@H]1CC[C@@]2(CC1)NC(=O)C(c1cc(-c3ccc(Cl)cc3)ccc1C)=C2O [1-147, (5r,8r)-3-(4′-Chloro-4 methylbiphenyl-3-yl)-8-ethoxy-4-hydroxy-1-azaspiro[4.5]dec-3-en-2-one] | 2030 | 174 | – | – | 1250 | 195 |
| – | 402 | 302 | CCCOC1CCC2(CC1)OC(=O)C(c1cc(-c3ccc(Cl)cc3)c(C)cc1C)=C2O (centres unmarked) [2-47, 3-(4′-chloro-4,6-dimethylbiphenyl-3-yl)-4-hydroxy-8-propoxy-1-oxaspiro[4.5]dec-3-en-2-one] | 389 | – | – | – | 453 | 592 |
